# Test results reported in the supplement of paper PMC10307832.
# Columns and labels:
# Experiment in all cases: relative viability (nuclei count vs DMSO), 5 days (fraction); higher = more cells survive
# [1] = tested on: A-427
# Method in brief: (§1)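 Medians of duplicate plates are given as relative viability. That measure is the nuclei count in treated wells divided by the count in vehicle wells. Counts were taken on 4× images of lung cancer cell lines in 1536-well plates, 5 days after pin-tool dosing the day after seeding with one drug alone or a fixed anchor-drug dose plus five library-drug doses (not always all listed) in √10 steps.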
# [2] = tested on: CAL-12T
# Method in brief: as §1
# [3] = tested on: LK-2
# Method in brief: as §1
# [4] = tested on: NCI-H1648
# Method in brief: as §1
# [5] = tested on: NCI-H1651
# Method in brief: as §1
# [6] = tested on: NCI-H1755
# Method in brief: as §1
# [7] = tested on: A549
# Method in brief: as §1
# [8] = tested on: Calu-6
# Method in brief: as §1
# [9] = tested on: EBC-1
# Method in brief: as §1
# [10] = tested on: IA-LM
# Method in brief: as §1
# [11] = tested on: NCI-H1299
# Method in brief: as §1
# [12] = tested on: NCI-H1703
# Method in brief: as §1
smiles,measurement,setting,value
CN1CCN(CCOc2cc(OC3CCOCC3)c3c(Nc4c(Cl)ccc5c4OCO5)ncnc3c2)CC1 [Saracatinib] + CC(=O)Nc1cccc(-n2c(=O)n(C3CC3)c(=O)c3c(Nc4ccc(I)cc4F)n(C)c(=O)c(C)c32)c1 [Trametinib] (partner 0.02 µM),relative viability,[1]; first compound 0.02 µM,0.764
same,relative viability,[1]; first compound 0.2 µM,0.738
same,relative viability,[1]; first compound 0.6325 µM,0.911
same,relative viability,[1]; first compound 2 µM,0.672
same,relative viability,[2]; first compound 0.02 µM,0.394
same,relative viability,[2]; first compound 0.2 µM,0.373
same,relative viability,[2]; first compound 0.6325 µM,0.475
same,relative viability,[2]; first compound 2 µM,0.323
same,relative viability,[3]; first compound 0.02 µM,0.725
same,relative viability,[3]; first compound 0.2 µM,0.736
same,relative viability,[3]; first compound 0.6325 µM,0.722
same,relative viability,[3]; first compound 2 µM,0.614
same,relative viability,[4]; first compound 0.02 µM,0.436
same,relative viability,[4]; first compound 0.2 µM,0.47
same,relative viability,[4]; first compound 0.6325 µM,0.564
same,relative viability,[4]; first compound 2 µM,0.357
same,relative viability,[5]; first compound 0.02 µM,0.837
same,relative viability,[5]; first compound 0.2 µM,0.593
same,relative viability,[5]; first compound 0.6325 µM,0.907
same,relative viability,[5]; first compound 2 µM,0.877
same,relative viability,[6]; first compound 0.02 µM,0.724
same,relative viability,[6]; first compound 0.2 µM,0.714
same,relative viability,[6]; first compound 0.6325 µM,0.75
same,relative viability,[6]; first compound 2 µM,0.694
CN1CCN(CCOc2cc(OC3CCOCC3)c3c(Nc4c(Cl)ccc5c4OCO5)ncnc3c2)CC1 [Saracatinib] + Nc1nc2[nH]cc(CCc3ccc(C(=O)N[C@@H](CCC(=O)O)C(=O)O)cc3)c2c(=O)[nH]1 [Pemetrexed] (partner 0.2 µM),relative viability,[1]; first compound 0.02 µM,0.963
same,relative viability,[1]; first compound 0.2 µM,0.787
same,relative viability,[1]; first compound 0.6325 µM,0.846
same,relative viability,[1]; first compound 2 µM,1.01
same,relative viability,[2]; first compound 0.02 µM,1.27
same,relative viability,[2]; first compound 0.2 µM,1.15
same,relative viability,[2]; first compound 0.6325 µM,1.33
same,relative viability,[2]; first compound 2 µM,1.18
same,relative viability,[3]; first compound 0.02 µM,0.32
same,relative viability,[3]; first compound 0.2 µM,0.199
same,relative viability,[3]; first compound 0.6325 µM,0.205
same,relative viability,[3]; first compound 2 µM,0.161
same,relative viability,[4]; first compound 0.02 µM,0.721
same,relative viability,[4]; first compound 0.2 µM,0.766
same,relative viability,[4]; first compound 0.6325 µM,1.08
same,relative viability,[4]; first compound 2 µM,0.415
same,relative viability,[5]; first compound 0.02 µM,0.633
same,relative viability,[5]; first compound 0.2 µM,0.566
same,relative viability,[5]; first compound 0.6325 µM,0.621
same,relative viability,[5]; first compound 2 µM,0.581
same,relative viability,[6]; first compound 0.02 µM,0.465
same,relative viability,[6]; first compound 0.2 µM,0.409
same,relative viability,[6]; first compound 0.6325 µM,0.424
same,relative viability,[6]; first compound 2 µM,0.394
Cc1cn(-c2cc(NC(=O)c3ccc(C)c(Nc4nccc(-c5cccnc5)n4)c3)cc(C(F)(F)F)c2)cn1 [Nilotinib] + CC1(C)CCC(c2ccc(Cl)cc2)=C(CN2CCN(c3ccc(C(=O)NS(=O)(=O)c4ccc(N[C@H](CCN5CCOCC5)CSc5ccccc5)c(S(=O)(=O)C(F)(F)F)c4)cc3)CC2)C1 [Navitoclax] (partner 0.5 µM),relative viability,[1]; first compound 0.001 µM,0.984
same,relative viability,[1]; first compound 0.01 µM,0.998
same,relative viability,[1]; first compound 0.03162 µM,0.908
same,relative viability,[1]; first compound 0.1 µM,0.923
same,relative viability,[7]; first compound 0.001 µM,1.2
same,relative viability,[7]; first compound 0.003162 µM,1.47
same,relative viability,[7]; first compound 0.01 µM,1.14
same,relative viability,[7]; first compound 0.03162 µM,0.789
same,relative viability,[2]; first compound 0.003162 µM,1.17
same,relative viability,[2]; first compound 0.01 µM,1.17
same,relative viability,[2]; first compound 0.03162 µM,1.02
same,relative viability,[2]; first compound 0.1 µM,0.956
same,relative viability,[8]; first compound 0.001 µM,0.781
same,relative viability,[8]; first compound 0.003162 µM,0.845
same,relative viability,[8]; first compound 0.01 µM,1.05
same,relative viability,[8]; first compound 0.03162 µM,0.641
same,relative viability,[8]; first compound 0.1 µM,0.929
same,relative viability,[9]; first compound 0.001 µM,0.351
same,relative viability,[9]; first compound 0.003162 µM,0.373
same,relative viability,[9]; first compound 0.01 µM,0.332
same,relative viability,[9]; first compound 0.03162 µM,0.289
same,relative viability,[9]; first compound 0.1 µM,0.186
same,relative viability,[10]; first compound 0.001 µM,0.499
same,relative viability,[10]; first compound 0.003162 µM,0.603
same,relative viability,[10]; first compound 0.01 µM,0.795
same,relative viability,[10]; first compound 0.03162 µM,0.747
same,relative viability,[10]; first compound 0.1 µM,0.889
same,relative viability,[3]; first compound 0.001 µM,0.759
same,relative viability,[3]; first compound 0.003162 µM,0.939
same,relative viability,[3]; first compound 0.01 µM,1
same,relative viability,[3]; first compound 0.03162 µM,0.743
same,relative viability,[3]; first compound 0.1 µM,0.945
same,relative viability,[11]; first compound 0.003162 µM,1.08
same,relative viability,[11]; first compound 0.01 µM,1.13
same,relative viability,[11]; first compound 0.03162 µM,1.07
same,relative viability,[11]; first compound 0.1 µM,1.03
same,relative viability,[5]; first compound 0.001 µM,1.05
same,relative viability,[5]; first compound 0.003162 µM,1.56
same,relative viability,[5]; first compound 0.01 µM,1.43
same,relative viability,[5]; first compound 0.03162 µM,0.782
same,relative viability,[5]; first compound 0.1 µM,1.21
same,relative viability,[12]; first compound 0.001 µM,1.01
same,relative viability,[12]; first compound 0.003162 µM,0.482
same,relative viability,[12]; first compound 0.01 µM,0.325
same,relative viability,[12]; first compound 0.03162 µM,0.229
same,relative viability,[6]; first compound 0.001 µM,0.969
same,relative viability,[6]; first compound 0.003162 µM,1.1
same,relative viability,[6]; first compound 0.01 µM,1.08
same,relative viability,[6]; first compound 0.03162 µM,0.83
same,relative viability,[6]; first compound 0.1 µM,0.93
CN1CCN(CCOc2cc(OC3CCOCC3)c3c(Nc4c(Cl)ccc5c4OCO5)ncnc3c2)CC1 [Saracatinib] + CS(=O)(=O)CCNCc1ccc(-c2ccc3ncnc(Nc4ccc(OCc5cccc(F)c5)c(Cl)c4)c3c2)o1 [Lapatinib] (partner 2 µM),relative viability,[1]; first compound 0.02 µM,0.921
same,relative viability,[1]; first compound 0.2 µM,0.877
same,relative viability,[1]; first compound 0.6325 µM,1.07
same,relative viability,[1]; first compound 2 µM,1.04
same,relative viability,[7]; first compound 0.02 µM,1.06
same,relative viability,[7]; first compound 0.2 µM,1.01
same,relative viability,[7]; first compound 0.6325 µM,0.812
same,relative viability,[7]; first compound 2 µM,0.791
same,relative viability,[2]; first compound 0.02 µM,0.675
same,relative viability,[2]; first compound 0.2 µM,0.678
same,relative viability,[2]; first compound 0.6325 µM,0.791
same,relative viability,[2]; first compound 2 µM,0.555
same,relative viability,[8]; first compound 0.02 µM,1.08
same,relative viability,[8]; first compound 0.2 µM,0.839
same,relative viability,[8]; first compound 0.6325 µM,0.913
same,relative viability,[8]; first compound 2 µM,0.745
same,relative viability,[9]; first compound 0.02 µM,0.199
same,relative viability,[9]; first compound 0.2 µM,0.23
same,relative viability,[9]; first compound 0.6325 µM,0.197
same,relative viability,[9]; first compound 2 µM,0.212
same,relative viability,[10]; first compound 0.02 µM,0.803
same,relative viability,[10]; first compound 0.2 µM,0.799
same,relative viability,[10]; first compound 0.6325 µM,1.19
same,relative viability,[10]; first compound 2 µM,0.799
same,relative viability,[3]; first compound 0.02 µM,0.95
same,relative viability,[3]; first compound 0.2 µM,0.715
same,relative viability,[3]; first compound 0.6325 µM,0.725
same,relative viability,[3]; first compound 2 µM,0.504
same,relative viability,[11]; first compound 0.02 µM,0.982
same,relative viability,[11]; first compound 0.2 µM,1.02
same,relative viability,[11]; first compound 0.6325 µM,1
same,relative viability,[11]; first compound 2 µM,0.941
same,relative viability,[5]; first compound 0.02 µM,0.92
same,relative viability,[5]; first compound 0.2 µM,0.678
same,relative viability,[5]; first compound 0.6325 µM,0.873
same,relative viability,[5]; first compound 2 µM,0.695
same,relative viability,[12]; first compound 0.02 µM,0.873
same,relative viability,[12]; first compound 0.2 µM,1.02
same,relative viability,[12]; first compound 0.6325 µM,0.376
same,relative viability,[12]; first compound 2 µM,0.283
same,relative viability,[6]; first compound 0.02 µM,1.01
same,relative viability,[6]; first compound 0.2 µM,0.816
same,relative viability,[6]; first compound 0.6325 µM,1.1
same,relative viability,[6]; first compound 2 µM,0.965
Nc1cccc2c1CN(C1CCC(=O)NC1=O)C2=O (centres undefined) [Lenalidomide] + Cc1nc(NC(=O)N2CCC[C@H]2C(N)=O)sc1-c1ccnc(C(C)(C)C(F)(F)F)c1 [Alpelisib] (partner 2 µM),relative viability,[1]; first compound 0.253 µM,1.11
same,relative viability,[1]; first compound 2.53 µM,1.09
same,relative viability,[1]; first compound 8 µM,1.02
same,relative viability,[7]; first compound 0.253 µM,0.789
same,relative viability,[7]; first compound 0.8 µM,0.765
same,relative viability,[7]; first compound 2.53 µM,0.813
same,relative viability,[7]; first compound 8 µM,0.702
same,relative viability,[2]; first compound 0.253 µM,1.09
same,relative viability,[2]; first compound 0.8 µM,1.33
same,relative viability,[2]; first compound 2.53 µM,1.52
same,relative viability,[2]; first compound 8 µM,1.36
same,relative viability,[8]; first compound 0.253 µM,0.945
same,relative viability,[8]; first compound 0.8 µM,0.946
same,relative viability,[8]; first compound 2.53 µM,1.08
same,relative viability,[8]; first compound 8 µM,1.02
same,relative viability,[9]; first compound 0.253 µM,0.787
same,relative viability,[9]; first compound 0.8 µM,0.798
same,relative viability,[9]; first compound 2.53 µM,0.907
same,relative viability,[9]; first compound 8 µM,1.01
same,relative viability,[10]; first compound 0.253 µM,0.716
same,relative viability,[10]; first compound 0.8 µM,0.735
same,relative viability,[10]; first compound 2.53 µM,0.797
same,relative viability,[10]; first compound 8 µM,0.75
same,relative viability,[3]; first compound 0.253 µM,1.11
same,relative viability,[3]; first compound 2.53 µM,1.09
same,relative viability,[3]; first compound 8 µM,1.03
same,relative viability,[11]; first compound 0.253 µM,1.03
same,relative viability,[11]; first compound 0.8 µM,1.1
same,relative viability,[11]; first compound 2.53 µM,1.06
same,relative viability,[11]; first compound 8 µM,1.09
same,relative viability,[5]; first compound 0.253 µM,0.894
same,relative viability,[5]; first compound 0.8 µM,1.14
same,relative viability,[5]; first compound 2.53 µM,1.04
same,relative viability,[5]; first compound 8 µM,1.07
same,relative viability,[12]; first compound 0.253 µM,0.253
same,relative viability,[12]; first compound 0.8 µM,0.276
same,relative viability,[12]; first compound 2.53 µM,0.366
same,relative viability,[12]; first compound 8 µM,0.354
same,relative viability,[6]; first compound 0.253 µM,0.865
same,relative viability,[6]; first compound 0.8 µM,0.913
same,relative viability,[6]; first compound 2.53 µM,0.985
same,relative viability,[6]; first compound 8 µM,0.8
